According to PMC12024912, “Druggability Studies of Benzene Sulfonamide Substituted Diarylamide (E3) as a Novel Diuretic” (Biomedicines, 2025):

Tests used:
hERG K+ channel = target: T1, hERG K+ channel (Homo sapiens, UniProt Q12809); experiment: hERG K+ channel tail current, QPatch, CHO-hERG cells; format: cell-based
T1 construct: expressed in transfected cells; host or cells: CHO-hERG cells
Method: CHO-hERG cells were maintained in F12 medium (Gibco, Thermo Fisher Scientific, Waltham, MA, USA) containing 10% FBS and 0.5 mg/mL Geneticin (Invitrogen, Thermo Fisher Scientific, Waltham, MA, USA) under standard culture conditions (37 °C, 5% CO2). Cells were seeded 2 days prior to reaching 70% confluency, then washed with PBS and detached using 5 mL Detachin (Genlantis, San Diego, CA, USA) at 37 °C for 2~3 min. Cell suspensions (2 × 10^6 cells/mL in F12) were prepared and equilibrated for 20 min in the QStir station of the QPatch-16 system (Sophion Bioscience, Copenhagen, Denmark) before electrophysiological recordings.
hERG channel tail currents were assessed using the QPatch automated platform. Recording solutions contained (mM): Internal: KCl 120, CaCl2 5.374, MgCl2 1.75, KOH 31.25, EGTA 10, HEPES 10, Na2ATP 4 (pH 7.2); External: NaCl 145, KCl 4, MgCl2 1, CaCl2 2, HEPES 10, glucose 10 (pH 7.4)
Cells were voltage-clamped at −80 mV with series resistance monitored during −100 mV hyperpolarization. The stimulation protocol included: (1) 200 ms baseline at −50 mV; (2) 2s depolarization to +20 mV; and (3) tail current recording at −50 mV. Signals were acquired at 2 kHz through the integrated Bessel filter. Concentration-response relationships were established by sequential compound applications bracketed with saline controls for normalization.

[1] = Stability in simulated gastric fluid (SGF) and simulated intestinal fluid (SIF); format: in vitro ADME; details: 1 μmol/L; 37 °C; after 4 h
Method: (§1) Plasma from mice, rats, rabbits, and humans was obtained from blood after centrifugation at 3000 r/min for 10 min. Simulated gastric fluid (SGF, pH = 1, containing pepsin) and simulated intestinal fluid (SIF, pH = 6.8, containing trypsin) were configured previously in the experiments. SD rats and mice were collected, and after removing the mucus layer from the small intestine and colon, 20 times the volume of liquid bacterial culture medium was added. An intestinal microbiota suspension was obtained after anaerobic cultivation on a shaking table at 37 °C for 12 h. In the aforementioned systems, E3 was added at a final concentration of 1 μmol/L at 37 °C for different incubation times (0, 10, 20, 30, 60, 120, and 240 min). In liver metabolic stability assays, E3 was incubated with liver microsomes or liver homogenate from mice or rats for 60 min at 37 °C. The stop solution, 5 ng/mL tolbutamide (internal standard, IS) in acetonitrile, was added to stop the metabolic process. Post-centrifugation (18,000× g, 10 min, 4 °C), supernatants were subjected to liquid chromatography–tandem mass spectrometry (LC–MS/MS). Analyte-to-IS peak area ratios quantified residual percentages via Equation (2):Remaining% = (E3peak area/ISpeak area at different time)/(E3peak area/ISpeak area at 0 min) × 100%.(2)

mice = experiment: Subacute oral toxicity test in mice; format: in vivo
Method: The subacute oral toxicity test was performed according to “Guidance on Repeated Dose Toxicity Study for Pharmaceuticals” (2014). […] Eighteen male mice were evenly divided into two groups. Mice of the control group were orally administered with solvent (0.5% CMC-Na). Another group was orally administered with E3 1000 mg/kg. The solvent or E3 was administered once a day for 30 continuous days and withdrawn for 14 d for recovery. After the 30-day treatment, 12 mice (6/group) were chosen at random and sacrificed for necropsy.
During the study, the clinical symptoms, morbidity, and mortality of mice were observed twice a day at the side of the cage. Changes in appearance, behavior, appetite, gait, secretions, and excretions of the rats were meticulously documented. The body weights were measured before the start of the experiment, and the weights were measured every 2 d thereafter. Echocardiography was performed and evaluated every 10 d. Under anesthesia, blood samples were taken before the autopsy for hematological and clinical biochemistry analysis by an automated hematology analyzer (HEMAVET 950FS, Drew Scientific, TX, USA) and an automated biochemical analyzer (BS-180, Mindray Diagnostics, Shenzhen, China). The following organs were weighed: heart, liver, kidney, spleen, lung, thymus gland, testis, and brain. Furthermore, the corresponding organ/body weight ratio was computed. A comprehensive histopathological analysis was performed on vital tissues and organs.

[2] = Intestinal microbiota stability (colon and small intestine), rats and mice together; format: in vitro ADME, SD rats and mice; details: after 4 h
Method: as §1

T1 sequence (Q12809 whole entry): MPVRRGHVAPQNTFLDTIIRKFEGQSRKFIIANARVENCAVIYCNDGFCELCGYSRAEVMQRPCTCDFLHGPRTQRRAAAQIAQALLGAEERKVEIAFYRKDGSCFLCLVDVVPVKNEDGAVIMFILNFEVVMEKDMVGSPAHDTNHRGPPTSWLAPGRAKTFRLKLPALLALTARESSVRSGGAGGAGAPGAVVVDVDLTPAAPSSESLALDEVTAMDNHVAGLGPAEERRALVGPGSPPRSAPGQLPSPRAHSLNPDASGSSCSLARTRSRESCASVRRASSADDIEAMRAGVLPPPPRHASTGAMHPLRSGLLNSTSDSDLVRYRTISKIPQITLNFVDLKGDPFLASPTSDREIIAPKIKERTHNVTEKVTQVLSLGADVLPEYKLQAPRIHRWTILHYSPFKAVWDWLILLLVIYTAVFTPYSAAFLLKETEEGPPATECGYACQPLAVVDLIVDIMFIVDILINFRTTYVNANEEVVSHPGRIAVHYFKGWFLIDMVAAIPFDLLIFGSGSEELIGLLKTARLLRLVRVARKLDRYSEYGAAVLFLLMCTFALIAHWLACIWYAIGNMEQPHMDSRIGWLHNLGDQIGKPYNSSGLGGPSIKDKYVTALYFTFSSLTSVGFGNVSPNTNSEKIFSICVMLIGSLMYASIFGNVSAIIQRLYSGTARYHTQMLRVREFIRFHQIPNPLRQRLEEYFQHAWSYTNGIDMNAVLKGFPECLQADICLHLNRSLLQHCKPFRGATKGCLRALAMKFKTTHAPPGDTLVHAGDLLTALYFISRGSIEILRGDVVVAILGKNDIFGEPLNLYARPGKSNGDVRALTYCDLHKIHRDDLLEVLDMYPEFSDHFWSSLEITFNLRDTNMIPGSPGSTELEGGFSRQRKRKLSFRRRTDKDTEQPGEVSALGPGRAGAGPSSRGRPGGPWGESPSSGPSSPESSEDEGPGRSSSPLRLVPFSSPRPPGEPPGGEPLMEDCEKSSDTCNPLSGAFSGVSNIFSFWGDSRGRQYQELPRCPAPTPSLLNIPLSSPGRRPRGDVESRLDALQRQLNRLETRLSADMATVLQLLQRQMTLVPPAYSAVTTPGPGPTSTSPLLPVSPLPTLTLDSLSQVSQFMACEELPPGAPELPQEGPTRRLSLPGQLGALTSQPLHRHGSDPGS

Question: What does the source list for `CC(=O)c1ccc(C(=O)Nc2cccc(NS(=O)(=O)c3ccccc3)c2)o1` [Compound E3, 5-acetyl-N-(3-(phenylsulfonamido)phenyl)furan-2-carboxamide]?
Answer: IC50 (hERG K+ channel): > 33.3 µM; E3 remaining in SGF (pH 1.0) and SIF (pH 6.8) [1]: More than 90%; appearance, behavior, secretions, and excretions (mice; 1000 mg/kg daily oral, 30 days): no apparent abnormality; body weight or organ indexes (mice; 1000 mg/kg daily oral, 30 days): no significant change; histopathology of brain, lung, heart, spleen, liver, kidney, testis (mice; 1000 mg/kg daily oral, 30 days): No histopathological toxic lesion; blood parameters and blood biochemical indexes (mice; 1000 mg/kg daily oral, 30 days, vs control): no significant changes; left ventricular ejection fraction and fractional shortening (cardiac ultrasound) (mice; 1000 mg/kg daily, during and after administration): no significant abnormality; EOS (mice; 1 g/kg, 30 d, mean, n=9): 0.13%; HB (mice; 1 g/kg, 30 d, mean, n=9): 80.11 g/L; HCT (mice; 1 g/kg, 30 d, mean, n=9): 41.04%; LYM (mice; 1 g/kg, 30 d, mean, n=9): 74.12%; MCH (mice; 1 g/kg, 30 d, mean, n=9): 9.96 pg; MCHC (mice; 1 g/kg, 30 d, mean, n=9): 195.33 g/L; MCV (mice; 1 g/kg, 30 d, mean, n=9): 51.09 fL; MONO (mice; 1 g/kg, 30 d, mean, n=9): 3.02%; MPV (mice; 1 g/kg, 30 d, mean, n=9): 3.01 fL; NEU (mice; 1 g/kg, 30 d, mean, n=9): 22.71%; PLT (mice; 1 g/kg, 30 d, mean, n=9): 1313.22 109/L; RBC (mice; 1 g/kg, 30 d, mean, n=9): 8.03 1012/L; RDW (mice; 1 g/kg, 30 d, mean, n=9): 16.07%; WBC (mice; 1 g/kg, 30 d, mean, n=9): 8.37 109/L; delayed toxicity (14 d recovery period) (mice; after 30 d of 1000 mg/kg): no delayed toxicity; E3 remaining with intestinal microbiota (colon and small intestine) [2]: over 82%
